Results taken from PubChem BioAssay (NCI).
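Protocol summary: plate cells (96-well), add compound at 5 concentrations, incubate 48 h, interpolate endpoints linearly. The concentration for 50% growth inhibition is given as GI50. TGI denotes the concentration required for complete inhibition of growth.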

Tests used:
Assay in all cases: DTP human tumour cell line panel, 48 h
MDA-MB-231 breast = test system: MDA-MB-231 breast
RXF-631 renal = test system: RXF-631 renal
SNB-78 CNS = test system: SNB-78 CNS
DMS 114 small cell lung = test system: DMS 114 small cell lung

Row | SMILES | TGI (MDA-MB-231 breast) [µM] | TGI (RXF-631 renal) [µM] | TGI (SNB-78 CNS) [µM] | TGI (DMS 114 small cell lung) [µM] | GI50 (MDA-MB-231 breast) [µM]
1 | CN1C[C@H]2[C@@H](C1=O)[C@H](c1ccccc1)ON2C | > 100 |  |  |  | 
2 | CC(=O)O[C@H]1C=CC(=O)C(C)CC1C (stereo not given in full) |  | > 100 | > 100 | > 100 | 
3 | COc1ccc(-c2nn(-c3cccc(NC(=O)Nc4ccccc4)c3)cc2-c2ccncc2)cc1Cl | 8.01 |  |  |  | 2.53
4 | Fc1ccc(-c2nn3c(-c4cc(C(F)(F)F)cc(C(F)(F)F)c4)nnc3s2)cc1 | > 50 |  |  |  | 1.79
5 | C=C1C(=O)O[C@@H]2[C@H]1CCC(C)=C1C=CC(=O)[C@]12C |  | 23.6 | 18.9 | 29.8 | 
6 | CC(=O)C=NCC(=O)O | > 100 |  |  |  | 
7 | O=C(Nc1ccc(Sc2ccc(N=Nc3c(O)c(S(=O)(=O)O)cc4cc(S(=O)(=O)O)ccc34)cc2)cc1)c1ccc(N=Nc2c(O)ccc3c(S(=O)(=O)O)cc(S(=O)(=O)O)cc23)cc1 |  | > 100 | > 100 |  | 
8 | c1ccc(N=c2nc(N3CCOCC3)ss2)cc1 |  | 31.7 | 51.3 | 30.2 | 
9 | N#CC(Nc1cccc(C(F)(F)F)c1)c1ccccc1C(F)(F)F (stereo not given) |  |  | 43 | 23.8 | 
10 | CCC(=O)NC(Nc1cccc(F)c1)(C(F)(F)F)C(F)(F)F | > 100 |  |  |  | 
